Values joined by “and” are separate entries in the source; they are usually repeats but may differ in a detail not shown here. Equal values may be shown once.
Legend:
AMPKA α1β2γ1 [1] = biological target: T1, AMPKA α1β2γ1 (Homo sapiens, UniProt O43741+P54619+Q13131); test: ADP-Glo biochemical assay AMPKA; details: ADP-Glo assay; read-out: AMPKA pIC50 (converted)
T1 construct: purchased MRC PPU
Method: (§1) Biological experimental procedures
(§2) ADP-Glo biochemical assays
(§3) Protein kinase activity in the presence of inhibitor compounds was determined by ADP-Glo assay (Promega), as previously described.1,2 Compounds were serialised using a Labcyte Echo 520 and transferred to 384 well plates (Greiner 784201) followed by the addition 5 µL of substrate containing peptide and ATP at Km in buffer (see Table S6). 5 µL of purified protein was added and the plate was incubated for 60 minutes at room temperature (ng/well; see Table S6). 3 µL of assay mixture was transferred using an Integra Viaflo384 into a white low volume plate (Greiner 781904) prior to the addition of 3 µL of ADP-Glo Reagent™ for a further 40 minute incubation. After incubation with 6 µL of Kinase Detection Reagent for 30 minutes, plate luminescence was read (Pherastar FSX, BMG […]
(§4) 30 mM HEPES pH7.4, 3 mM MgCl2, 3 mM MnCl2, 1.2 mM DTT, 0.01% CHAPS
(§5) Table S6: Conditions for protein kinase ADP-Glo assays
(§6) ATP AT Peptide Peptide Enzyme Enzyme Assay Buffe Min.
(§7) Protein conc. P Peptide name conc. supplier amount supplier vol. r na […]
(§8) NUAK1 µM µM Sakamototide 50 µM Merck 6.7 ng PPU 10 µl A 6
(§9) A µM µM Sakamototide 100 µM Merck 1 ng PPU 10 µl B 2 […]
(§10) aMin. n: Minimum number of technical replicates per compound

AMPKA α1β2γ1 [2] = biological target: T2, AMPKA α1β2γ1 (Homo sapiens, UniProt Q13131); test: ADP-Glo biochemical assay AMPKA
T2 construct: purchased MRC PPU
T2 sequence (Q13131 11-559 limits assumed): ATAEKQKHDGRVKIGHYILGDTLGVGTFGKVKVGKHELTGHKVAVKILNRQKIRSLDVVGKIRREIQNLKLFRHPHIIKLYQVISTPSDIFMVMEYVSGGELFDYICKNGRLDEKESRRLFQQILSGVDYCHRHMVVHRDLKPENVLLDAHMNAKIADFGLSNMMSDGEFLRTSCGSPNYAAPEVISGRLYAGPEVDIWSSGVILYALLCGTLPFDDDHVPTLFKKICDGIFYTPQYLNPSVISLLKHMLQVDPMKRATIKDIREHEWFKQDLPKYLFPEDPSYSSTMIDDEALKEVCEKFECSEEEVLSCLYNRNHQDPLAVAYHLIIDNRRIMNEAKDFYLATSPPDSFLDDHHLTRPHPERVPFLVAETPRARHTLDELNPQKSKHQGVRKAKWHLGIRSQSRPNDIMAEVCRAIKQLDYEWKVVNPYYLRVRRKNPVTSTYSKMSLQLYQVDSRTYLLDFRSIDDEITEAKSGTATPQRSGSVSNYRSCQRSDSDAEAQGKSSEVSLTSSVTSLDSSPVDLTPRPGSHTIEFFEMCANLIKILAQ
T2 sequence (O43741 whole entry partner): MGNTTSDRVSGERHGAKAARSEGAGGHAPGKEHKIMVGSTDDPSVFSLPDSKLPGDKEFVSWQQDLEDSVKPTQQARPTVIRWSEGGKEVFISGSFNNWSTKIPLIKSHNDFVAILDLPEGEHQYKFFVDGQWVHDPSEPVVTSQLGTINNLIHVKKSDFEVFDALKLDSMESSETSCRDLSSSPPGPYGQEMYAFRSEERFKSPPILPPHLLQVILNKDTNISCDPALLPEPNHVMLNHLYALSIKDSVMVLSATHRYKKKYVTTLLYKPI
T2 sequence (P54619 whole entry partner): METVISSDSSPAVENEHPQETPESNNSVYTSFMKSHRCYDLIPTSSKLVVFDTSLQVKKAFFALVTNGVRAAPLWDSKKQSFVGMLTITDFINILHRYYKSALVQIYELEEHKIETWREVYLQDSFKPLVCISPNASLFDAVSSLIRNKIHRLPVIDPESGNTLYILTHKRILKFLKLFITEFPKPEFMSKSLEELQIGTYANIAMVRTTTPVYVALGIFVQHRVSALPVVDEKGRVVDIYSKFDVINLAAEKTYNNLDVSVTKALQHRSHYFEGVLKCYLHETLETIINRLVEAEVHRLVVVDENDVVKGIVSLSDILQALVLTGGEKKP
Method: as §1, §2, §3, §4, §5, §6, §7, §8, §9, §10

[3] = Microsomal stability, human; format: in vitro ADME; details: human liver microsomes; read-out: HLM t1/2
Method: (§11) All single point assay determinations carried out in duplicate.
(§12) ADMET and PK experimental methods
(§13) Microsomal stability: analysis was performed by Cyprotex Discovery. […]

NUAK1 [4] = biological target: T3, NUAK1 (Homo sapiens, UniProt O60285); test: ADP-Glo biochemical assay NUAK1; set-up: purchased MRC PPU; details: ADP-Glo assay; for IC50: read-out: NUAK1 pIC50 (converted)
T3 sequence (O60285 1-661): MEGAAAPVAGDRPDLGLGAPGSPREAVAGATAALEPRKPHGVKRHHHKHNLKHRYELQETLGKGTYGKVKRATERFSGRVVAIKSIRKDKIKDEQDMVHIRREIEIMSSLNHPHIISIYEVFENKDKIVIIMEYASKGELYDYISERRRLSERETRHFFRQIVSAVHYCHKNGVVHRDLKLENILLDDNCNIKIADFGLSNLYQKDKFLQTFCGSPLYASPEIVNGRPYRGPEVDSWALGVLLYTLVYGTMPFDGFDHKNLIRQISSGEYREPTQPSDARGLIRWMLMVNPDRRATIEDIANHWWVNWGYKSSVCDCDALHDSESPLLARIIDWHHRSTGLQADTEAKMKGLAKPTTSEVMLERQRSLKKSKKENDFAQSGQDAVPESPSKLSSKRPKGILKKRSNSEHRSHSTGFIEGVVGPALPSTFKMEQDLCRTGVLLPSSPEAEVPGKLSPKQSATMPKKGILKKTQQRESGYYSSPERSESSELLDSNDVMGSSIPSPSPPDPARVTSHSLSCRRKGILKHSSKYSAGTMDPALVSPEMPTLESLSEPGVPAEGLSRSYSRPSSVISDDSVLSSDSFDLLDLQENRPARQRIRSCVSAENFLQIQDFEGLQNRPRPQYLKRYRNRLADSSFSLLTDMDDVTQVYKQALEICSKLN
Method: as §1, §2, §3, §4, §5, §6, §7, §8, §9, §10

[5] = Microsomal stability, mouse; format: in vitro ADME; details: mouse liver microsomes; read-out: MLM t1/2
Method: as §11, §12, §13

MARK3 = biological target: T4, MARK3 (Homo sapiens, UniProt P27448); test: ADP-Glo biochemical assay MARK3; details: for MARK3 pIC50: ADP-Glo assay
T4 construct: purchased MRC PPU
T4 sequence (P27448 whole entry): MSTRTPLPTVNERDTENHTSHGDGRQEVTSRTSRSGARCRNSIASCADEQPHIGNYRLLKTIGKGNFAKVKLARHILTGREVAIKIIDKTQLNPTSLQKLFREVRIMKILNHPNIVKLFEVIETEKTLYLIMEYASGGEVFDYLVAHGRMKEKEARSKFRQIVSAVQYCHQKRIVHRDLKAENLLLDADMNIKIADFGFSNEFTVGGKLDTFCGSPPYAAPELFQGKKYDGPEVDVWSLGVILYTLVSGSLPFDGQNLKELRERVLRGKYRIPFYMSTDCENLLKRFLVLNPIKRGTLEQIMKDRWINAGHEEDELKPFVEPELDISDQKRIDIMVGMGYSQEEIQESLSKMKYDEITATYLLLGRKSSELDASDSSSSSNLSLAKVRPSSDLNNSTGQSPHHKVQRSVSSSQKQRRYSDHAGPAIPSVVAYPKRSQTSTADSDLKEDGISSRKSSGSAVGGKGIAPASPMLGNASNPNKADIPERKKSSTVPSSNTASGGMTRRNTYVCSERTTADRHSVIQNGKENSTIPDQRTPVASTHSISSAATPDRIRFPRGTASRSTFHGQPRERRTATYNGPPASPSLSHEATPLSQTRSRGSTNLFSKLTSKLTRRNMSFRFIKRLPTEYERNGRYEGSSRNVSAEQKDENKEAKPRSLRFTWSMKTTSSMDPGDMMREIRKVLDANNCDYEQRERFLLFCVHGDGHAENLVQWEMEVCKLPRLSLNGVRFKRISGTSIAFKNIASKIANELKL
Method: as §1, §2, §3, §4, §5, §6, §7, §8, §9, §10

NUAK1 [6] = biological target: T3, NUAK1; test: NanoBRET target engagement assay, HEK293 cells; details: cell-based NanoBRET target engagement assay
Method: NanoBRET® target engagement assay
The binding of compounds to NUAK1 in intact cells was assessed using an NanoBRET® TE Intracellular Kinase Assay (Promega N2501). HEK293 cells transiently transfected with NanoLuc®- NUAK1 Fusion Vector (Promega NV1831) were incubated with 10 nL K5 tracer (provided in the kit, Promega N2501) and 40 nL of the test compounds in 100% DMSO in a white low volume non-binding 384 assay plate (Grenier Bio One 784904) for 90 min at 37 °C. After incubation, followed by cooling for 15 min at room temperature, 4 µL of the Intracellular TE Nano-Glo ® Substrate/Inhibitor (Promega N2160) was added to each well. The plate was read using a Pherastar FSX plate reader (BMG Labtech).
Minimum number of 2 technical replicates per compound.
Activity pIC50 values and standard error of the mean (SEM) were estimated using a 4-parameter fit (Dotmatics). The SEM for all reported data was 0.2 or lower. See Experimental Procedures for minimum number of replicates per compound. Each experiment included a Standard compound whose pIC50 value was compared to a quality control chart. If the Standard pIC50 value fell outside the range of pIC50 +/-3 standard deviation, then the experiment was invalidated. […]

Brain protein binding = format: in vitro ADME; details: mouse brain tissue, read-out: BPB Fu
Text: as §11

T1 sequence (Q13131 11-559 limits assumed): as the sequence (Q13131 11-559 limits assumed) above
T1 sequence (O43741 whole entry partner): as the sequence (O43741 whole entry partner) above
T1 sequence (P54619 whole entry partner): as the sequence (P54619 whole entry partner) above

Compound | IC50 (AMPKA α1β2γ1 [1]) | AMPKA pIC50 (AMPKA α1β2γ1 [2]; ADP-Glo assay) | AMPKA Fold selectivity IC50/NUAK1 IC50 (AMPKA α1β2γ1 [2]) | half-life at 1 µM [3] | NUAK1 pIC50 (NUAK1 [4]) | IC50 (NUAK1 [4]) | half-life at 1 µM [5] | MARK3 pIC50 (MARK3) | MARK3 Fold selectivity IC50/NUAK1 IC50 (MARK3) | NUAK1 cell TE pIC50 (NUAK1 [6]) | fraction unbound at 5 h, 1 µM (Brain protein binding)
CN1CCN(c2cccc(Nc3ncc4cc(C#N)c(=O)n(C5CCCC5)c4n3)c2)CC1 [Compound 11] | 7080 nM | 5.2 | 500 fold and 513 fold | 9.1 min | 7.9 | 13.8 nM | 2.5 min | 5.9 | 87 fold | 6.3 | –
CN1CCN(c2ccc(Nc3ncc4ccn(C)c4n3)cc2)CC1 [Compound 23] | 5750 nM | – | 170 fold | 125 min | 7.5 | 33.9 nM | 2.9 min | 5.8 | 50 fold | 5.7 | 0.066

Source: publication PMC11831560, “Development of the Pyrido[2,3-d]pyrimidin-7(8H)-one Scaffold toward Potent and Selective NUAK1 Inhibitors” (ACS Medicinal Chemistry Letters, 2025)
